Test results published in patent US6214537A, “Synthetic peptides and mixtures thereof for detecting HIV antibodies” (Biochem Immunosystems, Inc., priority 1988, dated 2001).
Positions of bridges follow the written chain, without caps; N, C: chain ends. Residues, ends and D or L forms follow the SMILES beside them.

Tests used:
[1] = test system: HIV-1-antibodies; assay: ELISA, cyclic versus non-cyclic peptides, sera at various dilutions; assay type: binding, human
Procedure: TABLE 5 is provided to illustrate the sensitivity of cyclic versus noncyclic peptides in the ELISA test by comparing the results of some sera at various dilutions.
(§1) Plates used in this experiment were coated with solutions of peptides at 10 μg/ml. (Experimental results of TABLE 5 were obtained with plates coated with peptides at 0,5 μg/ml). Four different HIV-1 positive serum samples were serially diluted and their titers determined. The titer was defined as the serum dilution giving an absorbancy reading of 1:0 in the conditions of the ELISA procedure already described.
(§2) Each well of the microtiter plate is saturated with 100 μl of a solution containing a peptide or mixture of peptides (5 μg/ml) and left overnight. The wells are emptied and washed twice with a washing buffer (Tris, 0.043M; NaCl, 0.5M;thimerosal, 0.01% w/v; Tween 20, 0.05% v/v; pH 7.4). The wells are then saturated with 0.35 ml of washing buffer for 1 hr. at 37° C. and washed once with the same buffer. Serum samples to be analyzed are diluted with specimen buffer (washing buffer plus casein, 0.05% w/v). The wells are rinsed with washing buffer prior to the addition of the diluted serum sample (0.1 ml). These are left to incubate for 1 hr. at room temperature. The wells are then emptied, washed twice rapidly and then once for two minutes with washing buffer. […] The wells are then emptied and washed twice rapidly with washing buffer and then five times in which the buffer was in contact with the well 2 minutes per washing.
(§3) The substrate solution (3,3', 5,5'-tetramethylbenzidine, 8 mg per ml of DMSO) is diluted with 100 volumes 0.1M citrate-acetate buffer, pH 5.6 containing 0.1% v/v of 30% H2 O2 and added to each well (0.1 ml per well). After 10 minutes the contents of each well is treated with 0.1 ml 2N H2 SO4 and the optical density read at 450 nm. All determinations are done in duplicate.

[2] = State of peptide in coating solution (HPLC, Ellman's test); assay type: physicochemical; conditions: 10% acetic acid (pH 2.7)
Excerpt: (§4) Even though results presented in TABLE 5 clearly show the superiority of cyclic peptides over their linear counterpart in detecting HIV-1-antibodies, that increased sensitivity could have been underestimated because of probable cyclization and polymerization of the linear peptide after solubilization in a carbonate buffer (pH 9.6). That experiment was repeated with the linear 87 and cyclic 87c peptides dissolved in a carbonate buffer (pH 9.6) as before and also in 10% acetic acid (pH 2.7). […] It is believed that cydization and polymerization also occured in the wells of the microtiter plates although the exact proportion of cyclic peptide bound to the plates versus linear has not been as yet determined.

[3] = test system: HIV-1 antibodies; assay: ELISA plates coated with cyclic 87c versus linear 87 or polymers of 87: sensitivity and background; assay type: binding, human
[4] = test system: antibodies specific to HIV-1; assay: ELISA serum titers, plates coated with cyclic 87c versus linear 87; assay type: binding, human
Excerpt: as §4, §1
The ratios of sensitivities measured with the cyclic peptide over the linear 87 peptide vary between 1:3 and 2:2 with an average of 1:8. These ratios are even larger, varying from 3:0 to 4:5, when the sensitivity of the ELISA test using the cyclic 87c peptide is compared using conditions (acidic pH) where the linear 87 peptide remains linear and is not allowed to cyclize or polymerize.

[5] = test system: HIV-1 antibodies; assay: ELISA, single peptides identifying HIV-1 positive sera; assay type: binding, human; conditions: ELISA, single peptide
Procedure: According to this test a peptide or a peptide mixture of the present invention is adsorbed onto the wells of a microtiter plate. The wells are then treated with sera to be tested. After washing, anti-human IgG labeled with peroxidase is added to the wells. The determination of the peroxidase is performed with a corresponding substrate, e.g. with o-phenylene diamine. Also in this procedure the peroxidase can be exchanged by another label, e.g. by a radioactive or fluorescence label.
as §2, §3

In the case of `CC[C@H](C)[C@H](NC(=O)CNC(=O)[C@H](CC(C)C)NC(=O)[C@H](CC(C)C)NC(=O)[C@H](CCC(N)=O)NC(=O)[C@H](CCC(N)=O)NC(=O)[C@H](CC(=O)O)NC(=O)[C@H](CCCCN)NC(=O)[C@H](CC(C)C)NC(=O)[C@H](Cc1ccc(O)cc1)NC(=O)[C@H](CCCNC(=N)N)NC(=O)[C@H](CCC(=O)O)NC(=O)[C@@H](NC(=O)[C@H](C)NC(=O)[C@H](CC(C)C)NC(=O)[C@@H](NC(=O)[C@@H](N)CCCNC(=N)N)[C@@H](C)CC)C(C)C)C(=O)N[C@@H](Cc1c[nH]c2ccccc12)C(=O)NCC(=O)N[C@H]1CSSC[C@@H](C(=O)N[C@H](C(=O)N[C@H](C(=O)N[C@@H](C)C(=O)N[C@H](C(=O)N2CCC[C@H]2C(=O)N[C@@H](Cc2c[nH]c3ccccc23)C(=O)N[C@@H](CC(N)=O)C(=O)N[C@@H](C)C(=O)N[C@@H](CO)C(=O)O)C(C)C)[C@@H](C)O)[C@@H](C)O)NC(=O)[C@H]([C@@H](C)CC)NC(=O)[C@H](CC(C)C)NC(=O)[C@H](CCCCN)NC(=O)CNC(=O)[C@H](CO)NC1=O` [Peptide 87c] (H-RILAVERYLKDQQLLGIWGCSGKLICTTAVPWNAS-OH; disulfide 20-26), the ELISA optical density ([1]; serum 87V103, dilution 1/50) is reported as 0.011 optical density units, the ELISA optical density ([1]; serum 1428, dilution 1/50) is reported as > 2.0 optical density units and the ELISA optical density ([1]; serum M-5, dilution 1/50) is reported as > 2.0 optical density units. The ELISA optical density ([1]; serum M-5, dilution 1/100) was > 2.0 optical density units, the ELISA optical density ([1]; serum M-5, dilution 1/200) was > 2.0 optical density units and the ELISA optical density ([1]; serum M-5, dilution 1/400) was > 2.0 optical density units. For the same compound, the ELISA optical density ([1]; serum M-5, dilution 1/800) was 1.854 optical density units, the ELISA optical density ([1]; serum M-7, dilution 1/50) was > 2.0 optical density units and the ELISA optical density ([1]; serum M-7, dilution 1/100) was > 2.0 optical density units. The ELISA optical density ([1]; serum M-7, dilution 1/200) was 1.729 optical density units, the ELISA optical density ([1]; serum M-7, dilution 1/400) was 1.348 optical density units and the ELISA optical density ([1]; serum M-7, dilution 1/800) was 0.611 optical density units. For the same compound, the ELISA optical density ([1]; serum M-8, dilution 1/50) was > 2.0 optical density units, the ELISA optical density ([1]; serum M-8, dilution 1/100) was > 2.0 optical density units and the ELISA optical density ([1]; serum M-8, dilution 1/200) was 1.655 optical density units. The ELISA optical density ([1]; serum M-8, dilution 1/400) was 1.064 optical density units, the ELISA optical density ([1]; serum M-8, dilution 1/800) was 0.384 optical density units and the ELISA optical density ([1]; serum M-16, dilution 1/50) was > 2.0 optical density units. The ELISA optical density ([1]; serum M-16, dilution 1/100) was > 2.0 optical density units, the ELISA optical density ([1]; serum M-16, dilution 1/200) was > 2.0 optical density units and the ELISA optical density ([1]; serum M-16, dilution 1/400) was > 2.0 optical density units. The ELISA optical density ([1]; serum M-16, dilution 1/800) was 1.962 optical density units, the “state of peptide in solution (HPLC, Ellman's test)” value [2] was “remained cyclic” and the “sensitivity in detecting HIV-1 antibodies compared with plates coated with pool of fractions containing only polymers of peptide 87” value [3] was “superiority”. For the same compound, the “titer ratio A/B (87c cyclic / 87 linear)” value ([4]; 10% Acetic Acid (pH 2.7), serum M-5) was 3.0, the “titer ratio A/B (87c cyclic / 87 linear)” value ([4]; 10% Acetic Acid (pH 2.7), serum M-7) was 3.9 and the “titer ratio A/B (87c cyclic / 87 linear)” value ([4]; 10% Acetic Acid (pH 2.7), serum M-8) was 4.5. For the same compound, the “titer ratio A/B (87c cyclic / 87 linear)” value ([4]; 10% Acetic Acid (pH 2.7), serum M-16) was 3.7, the “titer ratio A/B (87c cyclic / 87 linear)” value ([4]; Carbonate Bicarbonate 0.1M (pH 9.6), serum M-5) was 1.3 and the “titer ratio A/B (87c cyclic / 87 linear)” value ([4]; Carbonate Bicarbonate 0.1M (pH 9.6), serum M-7) was 1.8. For the same compound, the “titer ratio A/B (87c cyclic / 87 linear)” value ([4]; Carbonate Bicarbonate 0.1M (pH 9.6), serum M-8) was 2.2, the “titer ratio A/B (87c cyclic / 87 linear)” value ([4]; Carbonate Bicarbonate 0.1M (pH 9.6), serum M-16) was 1.7 and the serum titer ([4]; coating buffer 10% Acetic Acid (pH 2.7), serum M-5, coated at 10 μg/ml) was 13500. It also gave a serum titer ([4]; coating buffer 10% Acetic Acid (pH 2.7), serum M-7, coated at 10 μg/ml) of 9000, a serum titer ([4]; coating buffer 10% Acetic Acid (pH 2.7), serum M-8, coated at 10 μg/ml) of 6300 and a serum titer ([4]; coating buffer 10% Acetic Acid (pH 2.7), serum M-16, coated at 10 μg/ml) of 56000. For the same compound, the serum titer ([4]; coating buffer Carbonate Bicarbonate 0.1M (pH 9.6), serum M-5, coated at 10 μg/ml) was 13500, the serum titer ([4]; coating buffer Carbonate Bicarbonate 0.1M (pH 9.6), serum M-7, coated at 10 μg/ml) was 11000 and the serum titer ([4]; coating buffer Carbonate Bicarbonate 0.1M (pH 9.6), serum M-8, coated at 10 μg/ml) was 6500. For the same compound, the serum titer ([4]; coating buffer Carbonate Bicarbonate 0.1M (pH 9.6), serum M-16, coated at 10 μg/ml) was 56000 and the “% Positive Sera correctly Identified” value [5] was 99%.
